{"source": "paper PMC2788029", "about": "(Journal of molecular biology, 2009)", "key": {"T4 lysozyme L99A/M102Q [1]": {"molecular_target": "T1, T4 lysozyme L99A/M102Q (Enterobacteria phage T4, UniProt P00720, C54T/C97A/L99A/M102Q)", "details": "cited from earlier work"}, "T4 lysozyme L99A/M102Q [2]": {"molecular_target": "T1, T4 lysozyme L99A/M102Q", "assay": "biochemical", "assay_type": "binding"}, "T4 lysozyme L99A/M102Q [3]": {"molecular_target": "T1, T4 lysozyme L99A/M102Q", "assay_type": "binding"}, "[4]": {"details": "free energy of binding by ITC at 10°C, pH 6.8, prospective set"}}, "note": "pKd: −log10 of the molar value. “Also recorded” adds a separate entry of the source. Like-named read-outs stand apart in the source and are kept apart here.", "data": [{"smiles": "Nc1ccccc1O", "note": "[2-aminophenol]", "values": [{"measurement": "binding to L99A/M102Q (known)", "setting": "T4 lysozyme L99A/M102Q [1]", "result": "non-binder; also recorded: does not bind detectably"}]}, {"smiles": "CCOC1CCC=CO1", "note": "(stereo not drawn) [2-ethoxy-3,4-dihydro-2h-pyran]", "values": [{"measurement": "binding free energy, estimated", "setting": "T4 lysozyme L99A/M102Q [2]", "result": "-3.88 to -2.59", "unit": "kcal/mol"}, {"measurement": "ΔGb,exp (binding class)", "setting": "T4 lysozyme L99A/M102Q [2]", "result": "weak"}]}, {"smiles": "CCOc1ccccc1O", "note": "[2-ethoxyphenol]", "values": [{"measurement": "ΔGb,exp", "setting": "T4 lysozyme L99A/M102Q [3]", "result": "-4.02 ± 0.03", "unit": "kcal/mol"}]}, {"smiles": "CCc1ccccc1O", "note": "[2-ethylphenol]", "values": [{"measurement": "ΔGb,exp", "setting": "T4 lysozyme L99A/M102Q [3]", "result": "-4.57 ± 0.11", "unit": "kcal/mol"}]}, {"smiles": "Cc1ccccc1O", "note": "[2-methylphenol]", "values": [{"measurement": "ΔGb,exp", "setting": "T4 lysozyme L99A/M102Q [3]", "result": "-4.44 ± 0.11", "unit": "kcal/mol"}]}, {"smiles": "O=[N+]([O-])c1cccs1", "note": "[2-nitrothiophene]", "values": [{"measurement": "ΔGb,exp", "setting": "T4 lysozyme L99A/M102Q [3]; [4]", "result": "-4.85 ± 0.25", "unit": "kcal/mol"}]}, {"smiles": "CCCc1ccccc1O", "note": "[2-propylphenol]", "values": [{"measurement": "ΔGb,exp", "setting": "T4 lysozyme L99A/M102Q [3]", "result": "-5.33 ± 0.05", "unit": "kcal/mol"}]}, {"smiles": "c1cc2c([nH]1)CCCC2", "note": "[4,5,6,7-tetrahydroindole]", "values": [{"measurement": "ΔGb,exp", "setting": "T4 lysozyme L99A/M102Q [3]; [4]", "result": "-4.61 ± 0.09", "unit": "kcal/mol"}]}, {"smiles": "Clc1cn[nH]c1", "note": "[4-chloro-1h-pyrazole]", "values": [{"measurement": "binding free energy, estimated", "setting": "T4 lysozyme L99A/M102Q [2]", "result": "-3.88 to -2.59", "unit": "kcal/mol"}, {"measurement": "ΔGb,exp (binding class)", "setting": "T4 lysozyme L99A/M102Q [2]", "result": "weak"}]}, {"smiles": "C=Cc1ccncc1", "note": "[4-vinylpyridine]", "values": [{"measurement": "binding to L99A/M102Q (known)", "setting": "T4 lysozyme L99A/M102Q [1]; known ligands and non-binders", "result": "non-binder"}]}, {"smiles": "Cc1ccc(Cl)cc1O", "note": "[5-chloro-2-methylphenol]", "values": [{"measurement": "ΔGb,exp", "setting": "T4 lysozyme L99A/M102Q [3]", "result": "-5.04 ± 0.07", "unit": "kcal/mol"}]}, {"smiles": "CC(=O)OCc1ccccc1", "note": "[benzyl acetate]", "values": [{"measurement": "ΔGb,exp", "setting": "T4 lysozyme L99A/M102Q [3]; [4]", "result": "-4.48 ± 0.16", "unit": "kcal/mol"}]}, {"smiles": "Oc1ccccc1O", "note": "[catechol, reference compound]", "values": [{"measurement": "ΔGb,exp", "setting": "T4 lysozyme L99A/M102Q [3]", "result": "-4.16 ± 0.03", "unit": "kcal/mol"}, {"measurement": "binding to L99A/M102Q (known)", "setting": "T4 lysozyme L99A/M102Q [1]; known ligands and non-binders", "result": "is a ligand"}]}, {"smiles": "O=Nc1ccccc1", "note": "[nitrosobenzene]", "values": [{"measurement": "binding free energy, estimated", "setting": "T4 lysozyme L99A/M102Q [2]", "result": "-3.88 to -2.59", "unit": "kcal/mol"}, {"measurement": "ΔGb,exp (binding class)", "setting": "T4 lysozyme L99A/M102Q [2]", "result": "weak"}, {"measurement": "pKd", "setting": "T4 lysozyme L99A/M102Q [2]; affinity estimated from concentration where significant Tm upshift was observed", "result": "~3.00"}]}, {"smiles": "Oc1ccccc1", "note": "[phenol]", "values": [{"measurement": "ΔGb,exp", "setting": "T4 lysozyme L99A/M102Q [1]", "result": -5.24, "unit": "kcal/mol"}]}, {"smiles": "c1cc2sccc2s1", "note": "[thieno[3,2-b]thiophene]", "values": [{"measurement": "ΔGb,exp", "setting": "T4 lysozyme L99A/M102Q [3]; [4]", "result": "-4.67 ± 0.17", "unit": "kcal/mol"}]}]}
